Blank lines part the entries; values can stand above or below the compound they belong to.
Experiments:
[1] = test system: angelfish (Pterophyllum scalare) melanophores; assay: Pigment dispersion in angelfish melanophores on isolated scales (FIG. 3); format: cell-based; settings: for reversibility of dispersion (in words): removal of extracellular compound and epinephrine
Protocol: Melanophores permit a visual single-cell assay for the ability of cAMP analogs to enter cells and mimic cAMP actions. The melanophores were isolated on angelfish scales and the epidermis was stripped off. […] Dispersion was just detectable at 1 μM and half-maximal near 10 μM (FIG. 3A). […] The preceding examples are summarized in (64).

[2] = test system: T84 cells; assay: cells; format: cell-based; settings: for EC50: Homo sapiens, T84, 0.2 h, ISC 12 min after addition, read-out: EC50 for Cl- secretion
Excerpt: A convenient test system is the intestinal cell line T84, in which chloride secretion can be continuously monitored by mounting confluent monolayers of cells in Ussing chambers (42).

[3] = molecular target: cAMP-dependent kinase type I (FICRhR) (Bos taurus, UniProt P00514); assay: biochemical
cAMP-dependent kinase type I (FICRhR), sequence (P00514 whole entry): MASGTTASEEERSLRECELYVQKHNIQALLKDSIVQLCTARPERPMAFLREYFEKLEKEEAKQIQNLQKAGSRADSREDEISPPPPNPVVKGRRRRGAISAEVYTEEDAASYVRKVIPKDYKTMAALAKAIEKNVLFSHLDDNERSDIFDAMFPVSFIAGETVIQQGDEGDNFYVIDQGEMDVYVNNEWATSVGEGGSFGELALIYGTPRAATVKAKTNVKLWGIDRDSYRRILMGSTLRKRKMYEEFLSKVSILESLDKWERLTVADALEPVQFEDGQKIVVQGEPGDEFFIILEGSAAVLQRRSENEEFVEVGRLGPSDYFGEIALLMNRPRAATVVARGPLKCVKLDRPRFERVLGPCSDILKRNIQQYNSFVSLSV
Excerpt: When PKA is doubly labeled with fluorescein on its catalytic subunits and rhodamine on its regulatory subunits to produce FICRhR, fluorescence energy transfer from the fluorescein to rhodamine occurs in the holoenzyme complex but is disrupted upon activation and dissociation of the subunits. The change in the ratio of fluorescein to rhodamine emissions parallels the increase in kinase activity and can be nondestructively imaged in single cells. REF-52 fibroblasts were microinjected with FICRhR and emission ratio images recorded at room temperature as previously described (27).

[4] = molecular target: cAMP-dependent protein kinase (PKA) (Bos taurus, UniProt P00514); assay: cell-based; format: cell-based
[5] = test system: 1321N1 astrocytoma cells; assay: Cytosolic free Ca2+ imaging (fura-2) in 1321N1 astrocytoma cells (FIGS. 7-9); format: cell-based
Protocol: Biological tests on 1321N1 astrocytoma cells were performed similarly to the tests on REF-52 cells (71). The concentration of Cytosolic free Ca^2+ (ordinate, in units of […]) in fura-2-loaded 1321N1 astrocytoma cells is shown as a function of time (abscissa, in units of seconds). At the dotted vertical line labeled 1, 20 μM inositol-1,4,5-triphosphate propionyloxymethyl ester (5a, R=Et, R'=H) was added. […] Subsequently the cells could respond to carbachol (200 μM, delivered at the dotted vertical line labeled 2), a drug that stimulates the endogenous generation of inositol-1,4,5-triphosphate. However, the response to carbachol is depressed by the prior treatment with the inositol-1,4,5-triphosphate propionyloxymethyl ester. Likewise the Ca^2+ response to thapsigargin (100 nM, delivered at the dotted vertical line labeled 3), another drug that releases stored Ca^2+, is depressed.
A test similar to the one shown in FIG. 7 was conducted except that the medium lacked extracellular Ca^2+ and a dose of 60 μM inositol-1,4,5-triphosphate propionyloxymethyl ester was added at the dotted vertical line labeled 1. […] Because no extracellular Ca^2+ was present, this response must have represented release from intracellular Ca^2+ stores. […] The much greater degree of inhibition of the carbachol response compared to the previous example (FIG. 7) is due to the higher dose of the inositol-1,4,5-triphosphate propionyloxymethyl ester and the absence of extracellular Ca^2+, which reduces refilling of Ca^2+ stores.
In a further example, the same test as set forth above was conducted with astrocytoma cells, except that 2 μM inositol-1,4,5-triphosphate butyryloxymethyl ester (5a, R=Pr, R'=H) was used instead of the propionyloxymethyl ester.

[6] = test system: REF-52 fibroblasts; assay: Cytosolic free Ca2+ imaging (fura-2) in single REF-52 fibroblasts (FIG. 6); format: cell-based
Protocol: The best-established biological effect of IP3 is to release Ca^2+ from internal stores (26), so IP3 /PM (5a, R=Et, R'=H) was tested by imaging cytosolic free Ca^2+ levels in single REF-52 fibroblasts using standard methodology (58). Cells were loaded with the Ca^2+ -indicator fura-2 and viewed by fluorescence excitation ratioing. IP3 /PM (40 μM) was applied extracellularly while monitoring cytosolic Ca^2+ concentrations.

[7] = 20 μM, extracellular Ca2+ present, FIG. 7
[8] = 60 μM, no extracellular Ca2+, FIG. 8

Compound: CCCC(=O)Nc1ncnc2c1ncn2[C@@H]1O[C@@H]2COP(=O)(OCOC(C)=O)O[C@H]2[C@H]1OC(=O)CCC (some centres unmarked) [Bt2 cAMP/AM, N^6,O^2 '-Dibutyryl Adenosine 3',5'-cyclic Monophosphate Acetoxymethyl Ester]
pigment dispersion (in words) ([1]; 100 μM, extracellular): essentially complete dispersal
reversibility of dispersion (in words) ([1]; 100 μM): easily reversed
onset of dispersion relative to 100 μM (in words) ([1]; 1 mM): slightly faster onset of action
reversibility of dispersion (in words) ([1]; 1 mM): could not be readily reversed
minimal effective concentration ([1]; Pterophyllum scalare, Melanophore, read-out: concentration at which dispersion was just detectable): 1 µM
EC50 ([1]; Pterophyllum scalare, Melanophore, read-out: concentration for half-maximal dispersion): ~10 µM
increase in potency by AM ester group (vs Bt2 cAMP) ([1]; melanophore dispersion): more than 1000
time to maximum ISC ([2]; 3 μM, serosal bathing solution): 20 min
increase in potency by acetoxymethyl group (vs Bt2 cAMP) ([2]; Cl- secretion): 200 fold
EC50 [2]: 2 µM
kinetics of activation, ester vs Bt2 cAMP (in words) ([2]; T84 cells): essentially indistinguishable kinetics of activation
ISC response at other concentrations (in words) ([2]; relative to 3 μM): Higher concentrations of the derivative caused faster but not significantly greater responses, whereas lower concentrations reached lower maximum ISC values
separation of the FICRhR subunits in vitro (in words) ([3]; 1 μM): no separation of the subunits
activation at 10 µM ([3]; 10 μM (printed)): 0%
time to maximal change in fluorescence ratio ([4]; 10 μM (highest dose), added extracellularly, room temperature): ≤ 15 min
activation at 1 µM ([4]; REF52, 1 μM (intermediate dose), read-out: plateau of fluorescence ratio change (% of the maximal change)): > 50%
onset of separation of regulatory and catalytic subunit of FICRhR after addition ([4]; extracellular addition): roughly 2 min

Compound: CCC(=O)OCOP(=O)(OCOC(=O)CC)O[C@@H]1[C@H](O)[C@H](O)[C@@H](OP(=O)(OCOC(=O)CC)OCOC(=O)CC)[C@H](OP(=O)(OCOC(=O)CC)OCOC(=O)CC)[C@H]1O [IP3 /PM, D-myo-inositol-1,4,5-triphosphate propionyloxymethyl ester]
Ca2+ response to thapsigargin (100 nM) after treatment (in words) [5, 7]: depressed
delay of cytosolic Ca2+ elevation [5, 7]: about 100 second
elevation of cytosolic Ca2+ (in words) [5, 7]: sizable elevation of cytosolic Ca^2+
response to carbachol (200 μM) after treatment (in words) [5, 7]: depressed
delay of cytosolic Ca2+ elevation [5, 8]: ~50 s
elevation of cytosolic Ca2+ (in words) [5, 8]: sizable elevation of cytosolic Ca^2+
response to carbachol (200 μM) after treatment (in words) [5, 8]: greatly depressed
Ca2+ release from internal stores (in words) ([5]; summary, intact REF-52 fibroblasts and astrocytoma cells): released Ca^2+ from internal stores
cytosolic Ca2+ concentration after addition (in words) ([6]; 40 μM, extracellular): increased rapidly
effect of subsequent vasopressin (in words) ([6]; after 40 μM IP3/PM): much less effect than normal

Compound: D-myo-inositol-1,4,5-triphosphate butyryloxymethyl ester [IP3 /BM]
potency relative to propionyloxymethyl ester (in words) ([5]; 2 μM, FIG. 9): somewhat more potent
rate of effects relative to propionyloxymethyl ester (in words) ([5]; 2 μM, FIG. 9): slower to appear and decay

Continued, in another order:

EC50 [2]: 400 µM
activation at 10 µM ([3]; 10 μM (printed)): 16%
potency relative to cAMP ([3]; in vitro, FICRhR): roughly 1/100
activation at 10 µM ([3]; second Bt2 cAMP column, 10 μM printed): 61%
concentration required for PKA activation ([4]; extracellular application): 1 mM
Compound: CCCC(=O)Nc1ncnc2c1ncn2[C@@H]1O[C@@H]2COP(=O)(O)O[C@H]2[C@H]1OC(=O)CCC [Bt2 cAMP, N^6,O^2 '-dibutyryl cAMP, reference compound]
pigment dispersion (in words) ([1]; 1 mM): unable to cause any detectable dispersion
delay and time course of PKA activation relative to Bt2 cAMP/AM (in words) ([4]; 1 mM, FIG. 1 Graph B): Much the same delay and overall time course

EC50 [2]: 1500 µM
Compound: Nc1ncnc2c1nc(Br)n2[C@@H]1O[C@@H]2COP(=O)(O)O[C@H]2[C@H]1O [Compound 8-Br-cAMP, 8-bromo-cAMP, reference compound]

EC50 [2]: 100 µM
Compound: Nc1ncnc2c1nc(Sc1ccc(Cl)cc1)n2[C@@H]1O[C@@H]2COP(=O)(O)O[C@H]2[C@H]1O [Compound 8-pCPT-cAMP, 8-para-chlorophenylthio (cCPT) cAMP, reference compound]

— patent US5834436A, “Membrane-permeant second messengers” (priority 1995, dated 1998)
